From patent US9394520B2, “Expansion of hematopoietic stem cells” (University of Rochester, priority 2006, dated 2016)
Entries after “also recorded” stand apart in the source; their conditions may differ.

Experiments:
[1] = tested on: Jagged1; assay: Jagged1 mRNA by real time RT-PCR in UMR106 cells; type: cell-based
Method: UMR 106 cells were serum starved for 24 hours and then treated with a single dose of vehicle (controls) or PGE2 at a concentration of 10^-7 M. RNA was collected from both control and treated samples to assess the fold change in Jagged1 mRNA by real time RT-PCR analysis corrected for by beta-actin. FIG. 1B is a Western blot showing total protein that was collected from both control and treated samples exposed to Jagged1 antibody, C20. Positive control (+ctr) was provided by HS27a cells, a human stromal cell line with high levels of Jagged1 protein, while HS5 cells from a human stromal cell line with minimal Jagged1 levels were used as a negative control. […] UMR106 cells were serum starved for 24 hours. They were pre-treated with H89 for 30 minutes followed by a single dose of PGE2 at 10^-7 M or vehicle. RNA was collected from both control and treated samples to assess the fold change in Jagged1 RNA by real time RT-PCR analysis corrected for by β-actin. […] UMR106 cells were serum starved for 24 hours. […] Total protein was collected from both PGE2 and vehicle treated samples for Western blot analysis with Jagged1 antibody C-20. UMR106 cells were grown in DMEM supplemented with 1.5 g/l sodium bicarbonate, 10% FBS, penicillin (100 U/ml), streptomycin (100 U/ml). After three days of growth the cells were 80% confluent and media was replaced with serum-free media. After 24 hr in serum-free media, PGE2 was added in noted concentrations. UMR 106 cells were treated with the Protein Kinase A (PKA) inhibitors H89 (0.5 hr prior to PGE2 treatment), and myristoylated PKI (0.5 hr prior to PGE2 treatment). […] At the designated times, total RNA and protein were harvested. Total RNA was extracted and analyzed by real time RT-PCR, normalizing for β-actin expression and t=0. Total protein was analyzed by Western blots performed using the […] system (Invitrogen, Carlsbad, Calif.). Blots were probed with Jag1 c-20 antibody (Santa Cruz Biotechnology, Inc., Santa Cruz, Calif.), and the loading control was B-actin.

[2] = tested on: Jagged1; assay: Jagged1 protein by Western blot in UMR106 cells; type: cell-based; conditions: UMR106 cells, PKI 200 μg/ml pre-treatment, then PGE2 10^−7 M
Method: UMR 106 cells were serum starved for 24 hours and then treated with a single dose of vehicle (controls) or PGE2 at a concentration of 10^-7 M. RNA was collected from both control and treated samples to assess the fold change in Jagged1 mRNA by real time RT-PCR analysis corrected for by beta-actin. FIG. 1B is a Western blot showing total protein that was collected from both control and treated samples exposed to Jagged1 antibody, C20. Positive control (+ctr) was provided by HS27a cells, a human stromal cell line with high levels of Jagged1 protein, while HS5 cells from a human stromal cell line with minimal Jagged1 levels were used as a negative control. FIG. 2A is a graph showing that inhibition of PKA blocks PGE2-dependent increase of Jagged1 in UMR 106 cells. UMR106 cells were serum starved for 24 hours. They were pre-treated with H89 for 30 minutes followed by a single dose of PGE2 at 10^-7 M or vehicle. RNA was collected from both control and treated samples to assess the fold change in Jagged1 RNA by real time RT-PCR analysis corrected for by β-actin. […] UMR106 cells were serum starved for 24 hours. […] Total RNA was extracted and analyzed by real time RT-PCR, normalizing for β-actin expression and t=0. Total protein was analyzed by Western blots performed using the […] system (Invitrogen, Carlsbad, Calif.). […]

O=C(O)CC/C=C\CC[C@H]1[C@H](N2CCOCC2)C(=O)C[C@H]1OCc1ccc(-c2ccccc2)cc1 [AH23848]
PGE2-induced expression of Jagged1 ([1]; osteoblastic cells pretreated 30 minutes with 30 μM AH23848, then PGE2): did not inhibit

CCCC1([C@H](O)C/C=C/[C@H]2[C@H](O)CC(=O)[C@@H]2CCCCCCC(=O)OC)CCC1 [Butaprost, butaprost]
PGE2-induced Jagged1 expression ([1]; UMR 106 cells, butaprost 10 μM): inhibited

O=S(=O)(NCCNC/C=C/c1ccc(Br)cc1)c1cccc2cnccc12 [H89]
PGE2-dependent Jagged1 mRNA increase in presence of PKA inhibitor ([1]; UMR106 cells, H89 pre-treatment 30 minutes, then PGE2 10^−7 M): blocked; also recorded: inhibited

CCCC(=O)Nc1ncnc2c1ncn2[C@@H]1O[C@@H]2COP(=O)(O)O[C@H]2[C@H]1OC(=O)CCC [dibutyryl-cAMP, n6 2′-0-dibutyryladenosine-3′, 5′-cyclic monophpsphate]
Jagged1 increase by cAMP analogs that activate PKA ([1]; UMR106 cells): sufficient to increase Jagged1

myristoylated PKA Inhibitory Peptide (14-22) [PKI]
PGE2-dependent Jagged1 protein increase in presence of PKA inhibitor [2]: blocked; also recorded: inhibited
